Experimental data published in the NIST ThermoML archive (doi:10.1016/j.tca.2016.05.001).
Where “and” joins values, the source holds several entries; their conditions need not be identical. Identical values can stand only once.

What was measured:
[1] = for Triple point temperature: DSC
[2] = Molar enthalpy of transition or fusion; details: Crystal; DSC

c1cnc2ccc3ncccc3c2c1 [4,7-phenanthroline]
[1]
Details | vapor or sublimation pressure
336.8 K, Crystal, Torsion effusion method | 2.8e-05 kPa
337.1 K, Crystal, Torsion effusion method | 2.8e-05 kPa
339.5 K, Crystal, Torsion effusion method | 3.8e-05 kPa
340 K, Crystal, Torsion effusion method | 3.8e-05 kPa
340.1 K, Crystal, Torsion effusion method | 3.8e-05 kPa
341 K, Crystal, Torsion effusion method | 4.7e-05 kPa
341.9 K, Crystal, Torsion effusion method | 4.7e-05 kPa
342.8 K, Crystal, Torsion effusion method | 5.7e-05 kPa
342.9 K, Crystal, Torsion effusion method | 5.7e-05 kPa
343.3 K, Crystal, Torsion effusion method | 5.7e-05 kPa
346 K, Crystal, Torsion effusion method | 8.5e-05 kPa
346.6 K, Crystal, Torsion effusion method | 9.4e-05 kPa
346.7 K, Crystal, Torsion effusion method | 9.4e-05 kPa
348.3 K, Crystal, Torsion effusion method | 0.000114 kPa
349 K, Crystal, Torsion effusion method | 0.000114 kPa
349.4 K, Crystal, Torsion effusion method | 0.000133 kPa
350.6 K, Crystal, Torsion effusion method | 0.000151 kPa
350.8 K, Crystal, Torsion effusion method | 0.000133 kPa
351.7 K, Crystal, Torsion effusion method | 0.00017 kPa
351.8 K, Crystal, Torsion effusion method | 0.00017 kPa
352.7 K, Crystal, Torsion effusion method | 0.00019 kPa
352.8 K, Crystal, Torsion effusion method | 0.00017 kPa
354.4 K, Crystal, Torsion effusion method | 0.000208 kPa
354.7 K, Crystal, Torsion effusion method | 0.000219 kPa
354.8 K, Crystal, Torsion effusion method | 0.000228 kPa
355.5 K, Crystal, Torsion effusion method | 0.000264 kPa
355.7 K, Crystal, Torsion effusion method | 0.000247 kPa
355.8 K, Crystal, Torsion effusion method | 0.000247 kPa
356.4 K, Crystal, Torsion effusion method | 0.000264 kPa
358.2 K, Crystal, Torsion effusion method | 0.00034 kPa and 0.000323 kPa
358.7 K, Crystal, Torsion effusion method | 0.000361 kPa
359.4 K, Crystal, Torsion effusion method | 0.000379 kPa
360.2 K, Crystal, Torsion effusion method | 0.000415 kPa
360.5 K, Crystal, Torsion effusion method | 0.000436 kPa and 0.000415 kPa
361.4 K, Crystal, Torsion effusion method | 0.000512 kPa
362.2 K, Crystal, Torsion effusion method | 0.000472 kPa
363.1 K, Crystal, Torsion effusion method | 0.000533 kPa
363.2 K, Crystal, Torsion effusion method | 0.000571 kPa
364.1 K, Crystal, Torsion effusion method | 0.000625 kPa
366.2 K, Crystal, Torsion effusion method | 0.000819 kPa and 0.000741 kPa
368.4 K, Crystal, Torsion effusion method | 0.000951 kPa
368.7 K, Crystal, Torsion effusion method | 0.00102 kPa
369.6 K, Crystal, Torsion effusion method | 0.001041 kPa
463.1 K, Liquid, Rate of evaporation | 1.495 kPa
468.1 K, Liquid, Rate of evaporation | 1.882 kPa
473.1 K, Liquid, Rate of evaporation | 2.253 kPa
477.9 K, Liquid, Rate of evaporation | 2.67 kPa
481.9 K, Liquid, Rate of evaporation | 3.103 kPa
486.5 K, Liquid, Rate of evaporation | 4.064 kPa
492.1 K, Liquid, Rate of evaporation | 5.014 kPa
496.2 K, Liquid, Rate of evaporation | 6.311 kPa

Details | Triple point temperature [K]
[1], Crystal | 444.1

Details | Molar enthalpy of transition or fusion [kcal/mol]
[2] | 5.35

c1ccc2nc3ccccc3nc2c1 [phenazine]
[1]
Details | vapor or sublimation pressure
291.8 K, Crystal, Calculated from knudsen effusion weight loss | 9.4e-07 kPa
293.5 K, Crystal, Calculated from knudsen effusion weight loss | 1.3e-06 kPa
296.3 K, Crystal, Calculated from knudsen effusion weight loss | 1.6e-06 kPa
300.3 K, Crystal, Calculated from knudsen effusion weight loss | 2.9e-06 kPa
303.5 K, Crystal, Calculated from knudsen effusion weight loss | 4.7e-06 kPa
306.3 K, Crystal, Calculated from knudsen effusion weight loss | 6.1e-06 kPa
310.3 K, Crystal, Calculated from knudsen effusion weight loss | 1.1e-05 kPa
313.3 K, Crystal, Calculated from knudsen effusion weight loss | 1.81e-05 kPa
316.2 K, Crystal, Calculated from knudsen effusion weight loss | 2.24e-05 kPa and 2.6e-05 kPa
320.1 K, Crystal, Calculated from knudsen effusion weight loss | 3.8e-05 kPa and 4.6e-05 kPa
323.1 K, Crystal, Calculated from knudsen effusion weight loss | 6.6e-05 kPa
323.6 K, Crystal, Calculated from knudsen effusion weight loss | 6.5e-05 kPa
326.1 K, Crystal, Calculated from knudsen effusion weight loss | 8.9e-05 kPa
330 K, Crystal, Calculated from knudsen effusion weight loss | 0.00015 kPa
332.9 K, Crystal, Calculated from knudsen effusion weight loss | 0.000196 kPa
335.9 K, Crystal, Calculated from knudsen effusion weight loss | 0.000264 kPa
339.8 K, Crystal, Calculated from knudsen effusion weight loss | 0.0004 kPa
342.8 K, Crystal, Calculated from knudsen effusion weight loss | 0.00056 kPa
450.3 K, Liquid, Rate of evaporation | 2.018 kPa
451.4 K, Liquid, Rate of evaporation | 2.101 kPa
452.5 K, Liquid, Rate of evaporation | 2.186 kPa
454.8 K, Liquid, Rate of evaporation | 2.441 kPa
456.7 K, Liquid, Rate of evaporation | 2.618 kPa
458.9 K, Liquid, Rate of evaporation | 2.836 kPa
460.1 K, Liquid, Rate of evaporation | 3.041 kPa
462.6 K, Liquid, Rate of evaporation | 3.328 kPa
464.2 K, Liquid, Rate of evaporation | 3.533 kPa
466.7 K, Liquid, Rate of evaporation | 3.944 kPa
469.1 K, Liquid, Rate of evaporation | 4.316 kPa

Details | Triple point temperature [K]
[1], Crystal | 446.4

Details | Molar enthalpy of transition or fusion [kcal/mol]
[2] | 4.61

c1cnc2c(c1)ccc1ncccc12 [1,5-diazaphenanthrene]
[1]
Details | vapor or sublimation pressure
315 K, Crystal, Torsion effusion method | 3.8e-05 kPa
315.1 K, Crystal, Torsion effusion method | 3.8e-05 kPa
317.3 K, Crystal, Torsion effusion method | 4.7e-05 kPa
317.9 K, Crystal, Torsion effusion method | 5.7e-05 kPa
318.6 K, Crystal, Torsion effusion method | 5.7e-05 kPa
319.5 K, Crystal, Torsion effusion method | 6.7e-05 kPa
320.5 K, Crystal, Torsion effusion method | 7.6e-05 kPa
320.8 K, Crystal, Torsion effusion method | 7.6e-05 kPa
322.6 K, Crystal, Torsion effusion method | 0.0001 kPa
322.9 K, Crystal, Torsion effusion method | 0.00011 kPa
323 K, Crystal, Torsion effusion method | 0.000114 kPa
323.8 K, Crystal, Torsion effusion method | 0.00011 kPa
325.3 K, Crystal, Torsion effusion method | 0.000142 kPa
325.6 K, Crystal, Torsion effusion method | 0.00014 kPa
326 K, Crystal, Torsion effusion method | 0.00015 kPa
326.2 K, Crystal, Torsion effusion method | 0.00017 kPa
327.5 K, Crystal, Torsion effusion method | 0.00021 kPa
328.2 K, Crystal, Torsion effusion method | 0.000208 kPa and 0.00021 kPa
328.7 K, Crystal, Torsion effusion method | 0.00023 kPa
329.1 K, Crystal, Torsion effusion method | 0.00025 kPa
329.6 K, Crystal, Torsion effusion method | 0.00026 kPa
330.5 K, Crystal, Torsion effusion method | 0.00028 kPa
331 K, Crystal, Torsion effusion method | 0.0003 kPa
331.5 K, Crystal, Torsion effusion method | 0.00033 kPa
332 K, Crystal, Torsion effusion method | 0.00032 kPa
333 K, Crystal, Torsion effusion method | 0.00041 kPa
334.5 K, Crystal, Torsion effusion method | 0.00044 kPa
334.9 K, Crystal, Torsion effusion method | 0.00051 kPa
335 K, Crystal, Torsion effusion method | 0.00047 kPa
336.2 K, Crystal, Torsion effusion method | 0.00061 kPa
336.5 K, Crystal, Torsion effusion method | 0.00055 kPa
337.7 K, Crystal, Torsion effusion method | 0.00072 kPa
338.3 K, Crystal, Torsion effusion method | 0.00072 kPa
339.3 K, Crystal, Torsion effusion method | 0.00072 kPa
340 K, Crystal, Torsion effusion method | 0.00095 kPa and 0.00091 kPa
340.4 K, Crystal, Torsion effusion method | 0.00087 kPa
341.5 K, Crystal, Torsion effusion method | 0.00112 kPa
342.6 K, Crystal, Torsion effusion method | 0.00108 kPa
343.5 K, Crystal, Torsion effusion method | 0.00127 kPa
380.1 K, Liquid, Rate of evaporation | 0.023 kPa
382.1 K, Liquid, Rate of evaporation | 0.028 kPa
385.6 K, Liquid, Rate of evaporation | 0.032 kPa
388.2 K, Liquid, Rate of evaporation | 0.037 kPa
390.3 K, Liquid, Rate of evaporation | 0.043 kPa
393.1 K, Liquid, Rate of evaporation | 0.05 kPa
395.6 K, Liquid, Rate of evaporation | 0.057 kPa
398.1 K, Liquid, Rate of evaporation | 0.065 kPa
403.1 K, Liquid, Rate of evaporation | 0.086 kPa
405.6 K, Liquid, Rate of evaporation | 0.097 kPa
408.1 K, Liquid, Rate of evaporation | 0.113 kPa
410.9 K, Liquid, Rate of evaporation | 0.132 kPa
413.1 K, Liquid, Rate of evaporation | 0.145 kPa
418.1 K, Liquid, Rate of evaporation | 0.187 kPa
423.1 K, Liquid, Rate of evaporation | 0.24 kPa
428.1 K, Liquid, Rate of evaporation | 0.302 kPa

Details | Triple point temperature [K]
[1], Crystal | 351.7

Details | Molar enthalpy of transition or fusion [kcal/mol]
[2] | 6.12
